{"source": "ChEMBL document CHEMBL5620390", "about": "“A novel multifunctional mitochondrion-targeting NIR fluorophore probe inhibits tumour proliferation and metastasis through the PPARγ/ROS/β-catenin pathway” (Eur J Med Chem, 2023)", "key": {"[1]": {"test_system": "B16-F10", "test": "Induction of mitochondrial damage in mouse B16-F10 cells assessed as increase in ROS production at 2.5 uM after 5 to 60 mins by DCFH-DA staining based flow cytometry analysis", "format": "functional, cell-based", "conditions": "time 5-60 min"}, "[2]": {"test": "Toxicity in C57BL/6J mouse inoculated with mouse B16-F10 cells assessed as effect on kidney morphology at 2 mg/kg, ip administered every other day for 22 days by H and E staining based assay", "format": "organism-based", "conditions": "in vivo, 528 h, time 22 day"}, "[3]": {"test_system": "B16-F10", "test": "Induction of ROS generation in mouse B16-F10 cells assessed as reduction in SOD2 expression level at 0.31 to 1.25 uM incubated for 24 hrs", "format": "functional, cell-based", "conditions": "dose 0.31-1.25 µM"}, "[4]": {"test_system": "A-375", "test": "Induction of cell cycle arrest in human A-375 cells assessed as accumulation of cells at G0/G1 phase incubated for 24 hrs by PI staining based flow cytometry analysis (reference value: 12.05%)", "format": "functional"}, "[5]": {"test_system": "A-375", "test": "Induction of ROS generation in human A-375 cells assessed as reduction in PPARgamma expression level at 1.25 uM preincubated with rosiglitazone for 24 hrs followed by compound addition for 24 hrs", "format": "functional, cell-based"}, "[6]": {"test_system": "B16-F10", "test": "Antitumor activity against mouse B16-F10 cells inoculated in C57BL/6J mouse assessed as reduction in Ki-67 expression at 0.5 to 2 mg/kg, ip administered every other day and measured on day 22 by immunohistochemistry analysis", "format": "functional, organism-based", "conditions": "dose 0.5-2 mg/kg, time 22.0 day"}, "[7]": {"test_system": "A-375", "test": "Inhibition of colony formation in human A-375 cells at less than 0.63 uM by crystal violet staining based assay", "format": "functional, cell-based"}, "[8]": {"test": "Toxicity in C57BL/6J mouse inoculated with mouse B16-F10 cells assessed as effect on liver morphology at 2 mg/kg, ip administered every other day for 22 days by H and E staining based assay", "format": "organism-based", "conditions": "in vivo, 528 h, time 22 day"}, "[9]": {"test": "Renal toxicity in C57BL/6J mouse inoculated with mouse B16-F10 cells assessed as change in CREA level at 2 mg/kg, ip administered every other day for 22 days", "format": "organism-based", "conditions": "in vivo, 528 h, time 22 day"}, "[10]": {"test_system": "A-375", "test": "Inhibition of cell migration in human A-375 cells after 24 hrs by transwell assay", "format": "functional, cell-based", "conditions": "dose 0.31-1.25 µM"}, "[11]": {"test_system": "B16-F10", "test": "Inhibition of colony formation in mouse B16-F10 cells at less than 0.63 uM by crystal violet staining based assay", "format": "functional, cell-based"}, "[12]": {"test_system": "B16-F10", "test": "Induction of ROS generation in mouse B16-F10 cells assessed as reduction in GPX1 expression level at 0.31 to 1.25 uM incubated for 24 hrs", "format": "functional, cell-based", "conditions": "dose 0.31-1.25 µM"}, "[13]": {"test_system": "A-375", "test": "Induction of ROS generation in human A-375 cells assessed as reduction in SOD2 expression level at 0.31 to 1.25 uM incubated for 24 hrs", "format": "functional, cell-based", "conditions": "dose 0.31-1.25 µM"}, "[14]": {"test": "Cytotoxicity against human A-375 cells assessed as cell viability at 40 uM incubated for 24 hrs by MTT assay", "format": "toxicity, cell-based", "conditions": "read-out: Activity"}, "[15]": {"test_system": "B16-F10", "test": "Antitumor activity against mouse B16-F10 cells inoculated in C57BL/6J mouse assessed as reduction in tumor weight at 0.5 to 2 mg/kg, ip administered every other day and measured on day 22", "format": "functional, organism-based", "conditions": "dose 0.5-2 mg/kg, time 22.0 day"}, "[16]": {"test_system": "B16-F10", "test": "Induction of cell cycle arrest in mouse B16-F10 cells assessed as P21 protein accumulation at 0.31 to 1.25 uM after 24 hrs by Western blotting analysis", "format": "functional, cell-based", "conditions": "dose 0.31-1.25 µM"}, "[17]": {"test_system": "B16-F10", "test": "Inhibition of Wnt/beta-catenin signaling in mouse B16-F10 cells assessed as reduction in beta-catenin expression at 1.25 uM preincubated with rosiglitazone for 24 hrs followed by compound addition and measured after 24 hrs in presence of H2O2", "format": "cell-based"}, "[18]": {"test_system": "B16-F10", "test": "Induction of mitochondrial damage in mouse B16-F10 cells assessed as mitochondrial vacuolation at 2.5 uM incubated for 24 hrs by TEM analysis", "format": "functional, cell-based"}, "[19]": {"test_system": "B16-F10", "test": "Antitumor activity against mouse B16-F10 cells inoculated in mouse assessed as increase in E-cadherin expression at 2 mg/kg, ip administered every other day and measured on day 18 by immunohistochemistry analysis", "format": "functional, organism-based", "conditions": "time 18.0 day"}, "[20]": {"test_system": "A-375", "test": "Inhibition of Wnt/beta-catenin signaling in human A-375 cells assessed as reduction in TCF4 expression at 1.25 uM incubated for 24 hrs", "format": "cell-based"}, "[21]": {"test_system": "A-375", "test": "Inhibition of cell metastasis in human A-375 cells assessed as reduction in MMP2 protein level at 0.31 to 1.25 uM after 24 hrs by Western blotting analysis", "format": "functional, cell-based", "conditions": "dose 0.31-1.25 µM"}, "[22]": {"test": "Drug uptake in mouse B16-F10 cells implanted in C57BL/6J mouse assessed as fluorescence aggregation in liver at 3 mg/kg, iv measured after 12 hrs", "format": "ADME, organism-based", "conditions": "in vivo"}, "[23]": {"test_system": "A-375", "test": "Induction of ROS generation in human A-375 cells assessed as reduction in PPARgamma expression level at 1.25 uM incubated for 24 hrs", "format": "functional, cell-based"}, "[24]": {"test_system": "B16-F10", "test": "Induction of ROS generation in mouse B16-F10 cells assessed as reduction in PPARgamma expression level at 1.25 uM preincubated with rosiglitazone for 24 hrs followed by compound addition for 24 hrs", "format": "functional, cell-based"}, "[25]": {"test_system": "A-375", "test": "Inhibition of Wnt/beta-catenin signaling in human A-375 cells assessed as reduction in beta-catenin expression at 1.25 uM incubated for 24 hrs", "format": "cell-based"}, "[26]": {"test_system": "B16-F10", "test": "Induction of cell cycle arrest in mouse B16-F10 cells assessed as reduction in Cdk4 protein level at 0.31 to 1.25 uM after 24 hrs by Western blotting analysis", "format": "functional, cell-based", "conditions": "dose 0.31-1.25 µM"}, "[27]": {"test_system": "A-375", "test": "Induction of ROS generation in human A-375 cells assessed as reduction in GPX1 expression level at 0.31 to 1.25 uM incubated for 24 hrs", "format": "functional, cell-based", "conditions": "dose 0.31-1.25 µM"}, "[28]": {"test_system": "B16-F10", "test": "Antitumor activity against mouse B16-F10 cells inoculated in mouse assessed as reduction in tumor invasion at 2 mg/kg, ip administered every other day and measured on day 18 by H and E staining based assay", "format": "functional, organism-based", "conditions": "time 18.0 day"}, "[29]": {"test": "Drug uptake in mouse B16-F10 cells mitochondria at 2.5 uM incubated for 25 mins by mito-tracker green dye based confocal laser scanning fluorescence microscopy analysis", "format": "ADME", "conditions": "b16-f10, 25 min"}, "[30]": {"test_system": "B16-F10", "test": "Inhibition of ROS generation in mouse B16-F10 cells preincubated with rosiglitazone for 2 hrs followed by wash out and compound addition for 1 hr by DCFH-DA staining based inverted fluorescence microscopic analysis", "format": "functional, cell-based"}, "[31]": {"test_system": "B16-F10", "test": "Inhibition of Wnt/beta-catenin signaling in mouse B16-F10 cells assessed as reduction in TCF4 expression at 1.25 uM preincubated with rosiglitazone for 24 hrs followed by compound addition and measured after 24 hrs in presence of H2O2", "format": "cell-based"}, "[32]": {"test": "Toxicity in C57BL/6J mouse inoculated with mouse B16-F10 cells assessed as effect on spleen morphology at 2 mg/kg, ip administered every other day for 22 days by H and E staining based assay", "format": "organism-based", "conditions": "in vivo, 528 h, time 22 day"}, "[33]": {"test_system": "A-375", "test": "Induction of cell cycle arrest in human A-375 cells assessed as reduction in Cdk4 protein level at 0.31 to 1.25 uM after 24 hrs by Western blotting analysis", "format": "functional, cell-based", "conditions": "dose 0.31-1.25 µM"}, "[34]": {"test_system": "B16-F10", "test": "Induction of cell cycle arrest in mouse B16-F10 cells assessed as reduction in Cdk2 protein level at 0.31 to 1.25 uM after 24 hrs by Western blotting analysis", "format": "functional, cell-based", "conditions": "dose 0.31-1.25 µM"}, "[35]": {"test": "Drug uptake in human A-375 cells assessed as fluorescence intensity at 2.5 uM incubated for 1 hr by confocal laser scanning microscopic analysis", "format": "ADME, cell-based", "conditions": "a-375, 1 h"}}, "note": "Active and inactive are the calls of the source. No cut-off for these calls is given here."}
{"molecule": "CC[N+]1=C(/C=C/C2=C(Cl)C(=C/C=C3\\N(CCCCCC(=O)O/C(=N/C4CCCCC4)NC4CCCCC4)c4ccccc4C3(C)C)/CCC2)C(C)(C)c2ccccc21.[Br-]", "values": [{"measurement": "Activity", "setting": "[1]", "result": "Active"}, {"measurement": "Activity", "setting": "[2]", "result": "Non-Toxic"}, {"measurement": "Activity", "setting": "[3]", "result": "Active"}, {"measurement": "Activity", "setting": "[4]", "result": 45.5, "unit": "%"}, {"measurement": "Activity", "setting": "[5]", "result": "inactive"}, {"measurement": "Activity", "setting": "[6]", "result": "Active"}, {"measurement": "inhibition", "setting": "[7]", "result": "Active"}, {"measurement": "Activity", "setting": "[8]", "result": "Non-Toxic"}, {"measurement": "Activity", "setting": "[9]", "result": "Non-Toxic"}, {"measurement": "inhibition", "setting": "[10]", "result": "Dose-Dependent Effect"}, {"measurement": "inhibition", "setting": "[11]", "result": "Active"}, {"measurement": "Activity", "setting": "[12]", "result": "Active"}, {"measurement": "Activity", "setting": "[13]", "result": "Active"}, {"measurement": "viability at 24 h, 40 µM", "setting": "[14]", "result": 90, "unit": "%"}, {"measurement": "Activity", "setting": "[15]", "result": "Active"}, {"measurement": "Activity", "setting": "[16]", "result": "Active"}, {"measurement": "inhibition", "setting": "[17]", "result": "inactive"}, {"measurement": "Activity", "setting": "[18]", "result": "Active"}, {"measurement": "Activity", "setting": "[19]", "result": "Active"}, {"measurement": "inhibition", "setting": "[20]", "result": "Active"}, {"measurement": "inhibition", "setting": "[21]", "result": "Active"}, {"measurement": "Drug uptake", "setting": "[22]", "result": "Active"}, {"measurement": "Activity", "setting": "[23]", "result": "Active"}, {"measurement": "Activity", "setting": "[24]", "result": "inactive"}, {"measurement": "inhibition", "setting": "[25]", "result": "Active"}, {"measurement": "Activity", "setting": "[26]", "result": "Active"}, {"measurement": "Activity", "setting": "[27]", "result": "Active"}, {"measurement": "Activity", "setting": "[28]", "result": "Active"}, {"measurement": "Drug uptake", "setting": "[29]", "result": "Active"}, {"measurement": "Activity", "setting": "[30]", "result": "Dose-Dependent Effect"}, {"measurement": "Activity", "setting": "[31]", "result": "inactive"}, {"measurement": "Activity", "setting": "[32]", "result": "Non-Toxic"}, {"measurement": "Activity", "setting": "[33]", "result": "Active"}, {"measurement": "Activity", "setting": "[34]", "result": "Active"}, {"measurement": "Drug uptake", "setting": "[35]", "result": "Active"}]}
